According to ChEMBL document CHEMBL1201862, “PubChem BioAssay data set” (2004):
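Interpolation was linear, between the two tested concentrations surrounding the appropriate level; five concentrations were tested over 48 hours in 96-well plates. Abbreviation: GI50, concentration required for 50% inhibition of growth.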 Active and inactive are the calls of the source. Cut-off read from the data, not from the text of the source: active = GI50 up to about 1.1 µM and inactive = higher.

Assays:
Test in all cases: NCI tumour cell line growth inhibition, 48 h
HT-29 = test system: HT-29
OVCAR-4 = test system: OVCAR-4
OVCAR-8 = test system: OVCAR-8
UACC-62 = test system: UACC-62
HOP-92 = test system: HOP-92
SF-539 = test system: SF-539
HCT-116 = test system: HCT-116
NCI-H460 = test system: NCI-H460
NCI-H522 = test system: NCI-H522
COLO 205 = test system: COLO 205
NCI-H23 = test system: NCI-H23
EKVX = test system: EKVX
IGROV-1 = test system: IGROV-1
NCI-H226 = test system: NCI-H226
SN12C = test system: SN12C
A498 = test system: A498

Measured: GI50

Nc1ccc(C(=O)NN2C(=O)C(Cl)C2c2ccccc2Cl)cc1 (stereo not drawn)
inactive: HT-29 10.3 µM | OVCAR-4 13.8 µM | OVCAR-8 3.24 µM | UACC-62 8.69 µM | HOP-92 4.48 µM | SF-539 7.93 µM | HCT-116 4.21 µM | NCI-H460 4.45 µM | NCI-H522 1.71 µM | COLO 205 14.6 µM | NCI-H23 12.3 µM | EKVX 17.5 µM | IGROV-1 13.4 µM | NCI-H226 16.8 µM

CC1(C)C(=NN=C(N)N)C(C)(C)C1=NN=C(N)N
inactive: HT-29 > 100 µM | OVCAR-4 > 100 µM | OVCAR-8 > 100 µM | UACC-62 > 100 µM | HOP-92 > 100 µM | SF-539 > 100 µM | HCT-116 > 100 µM | NCI-H460 > 100 µM | NCI-H522 > 100 µM | COLO 205 > 100 µM | NCI-H23 > 100 µM | IGROV-1 > 100 µM | NCI-H226 > 100 µM | SN12C > 100 µM

N#Cc1cn(-c2c3ccccc3nc3ccccc23)c(=O)[nH]c1=O
inactive: HT-29 4.27 µM | OVCAR-4 5.14 µM | OVCAR-8 4.85 µM | UACC-62 15.8 µM | HOP-92 7.73 µM | SF-539 2.51 µM | HCT-116 3.95 µM | NCI-H460 3.55 µM | NCI-H522 4.03 µM | COLO 205 5.43 µM | NCI-H23 > 10 µM | EKVX 18.2 µM | IGROV-1 23.3 µM

COC(OC)c1cccc2c1C1(O)CCC3(CC21)OCCCCO3 (stereo not drawn)
inactive: HT-29 > 100 µM | OVCAR-4 > 100 µM | OVCAR-8 > 100 µM | UACC-62 > 100 µM | SF-539 > 100 µM | HCT-116 > 100 µM | NCI-H460 > 100 µM | NCI-H522 > 100 µM | A498 > 100 µM | COLO 205 > 100 µM | NCI-H23 > 100 µM | IGROV-1 > 100 µM | NCI-H226 > 100 µM | SN12C > 100 µM

CC1(C)CC(=O)C/C(=N/c2ccc([N+](=O)[O-])cc2)C1
inactive: HT-29 87.3 µM | OVCAR-8 > 100 µM | UACC-62 > 100 µM | HCT-116 17.6 µM | NCI-H460 > 100 µM | NCI-H522 40.9 µM | A498 > 100 µM | COLO 205 29.6 µM | NCI-H23 > 100 µM | EKVX > 100 µM | IGROV-1 > 100 µM | NCI-H226 > 100 µM | SN12C 71.8 µM

CN1C2C=C(c3ccccc3)CC1CC2 (stereo not drawn)
inactive: HT-29 > 100 µM | OVCAR-8 > 100 µM | UACC-62 > 100 µM | HOP-92 > 100 µM | SF-539 > 100 µM | HCT-116 > 100 µM | NCI-H460 > 100 µM | NCI-H522 > 100 µM | A498 > 100 µM | COLO 205 > 100 µM | NCI-H23 > 100 µM | EKVX > 100 µM | IGROV-1 > 100 µM | SN12C > 100 µM

CC(C)NC1CCCCC2c3cc(F)ccc3[C@]12O (stereo partly drawn)
inactive: HT-29 > 100 µM | OVCAR-4 > 100 µM | OVCAR-8 > 100 µM | UACC-62 > 100 µM | SF-539 > 100 µM | HCT-116 > 100 µM | NCI-H460 > 100 µM | NCI-H522 > 100 µM | A498 > 100 µM | COLO 205 > 100 µM | NCI-H23 > 100 µM | EKVX > 100 µM | IGROV-1 > 100 µM | NCI-H226 > 100 µM | SN12C > 100 µM

COC(=O)C1=C(O)c2cc(OC)c(OC)cc2C(c2ccc(OC)c(OC)c2)C1 (stereo not drawn)
inactive: HT-29 71.6 µM | OVCAR-4 > 100 µM | OVCAR-8 93.1 µM | UACC-62 99.8 µM | HOP-92 > 100 µM | SF-539 > 100 µM | HCT-116 56.4 µM | NCI-H460 66.7 µM | A498 36.3 µM | COLO 205 38.6 µM | NCI-H23 > 100 µM | EKVX > 100 µM | IGROV-1 > 100 µM | NCI-H226 > 100 µM | SN12C 51.2 µM

Cc1cc(=O)c2c(O)cc3c(c2o1)CC=C(COC1OC(COC2OC(CO)C(O)C(O)C2O)C(O)C(O)C1O)CO3 (stereo not drawn)
inactive: OVCAR-4 > 100 µM | OVCAR-8 > 100 µM | UACC-62 > 100 µM | HOP-92 > 100 µM | SF-539 > 100 µM | HCT-116 > 100 µM | NCI-H460 > 100 µM | NCI-H522 > 100 µM | COLO 205 > 100 µM | NCI-H23 > 100 µM | EKVX > 100 µM | IGROV-1 > 100 µM | NCI-H226 > 100 µM | SN12C > 100 µM

Cc1ccc(-c2nnc(-c3nn(-c4ccccc4)c4nc5ccccc5nc34)o2)cc1
inactive: HT-29 41.7 µM | OVCAR-4 3.01 µM | OVCAR-8 10.9 µM | UACC-62 14.2 µM | HOP-92 7.52 µM | SF-539 3.03 µM | HCT-116 12 µM | NCI-H460 9.04 µM | NCI-H522 17.9 µM | COLO 205 47.2 µM | NCI-H23 14 µM | EKVX 29.9 µM | IGROV-1 17.6 µM | NCI-H226 13.2 µM | SN12C 22.4 µM

Cc1ccc(S(=O)(=O)c2c3nc4ccccc4nc3n3c2[nH]c2ccccc23)cc1
inactive: OVCAR-4 > 100 µM | OVCAR-8 > 100 µM | UACC-62 25.7 µM | HOP-92 > 100 µM | SF-539 > 100 µM | HCT-116 > 100 µM | NCI-H460 > 100 µM | NCI-H522 > 100 µM | A498 18.7 µM | COLO 205 > 100 µM | NCI-H23 > 100 µM | EKVX > 100 µM | IGROV-1 8.13 µM | SN12C > 100 µM

CCOc1cccc2ccc[n+](CC)c12
inactive: HT-29 47.3 µM | OVCAR-4 55.1 µM | OVCAR-8 25.2 µM | UACC-62 > 100 µM | HOP-92 61 µM | SF-539 > 100 µM | HCT-116 37.1 µM | NCI-H460 75.7 µM | NCI-H522 16.4 µM | COLO 205 40.8 µM | NCI-H23 15.9 µM | EKVX > 100 µM | IGROV-1 > 100 µM | NCI-H226 > 100 µM | SN12C 53.1 µM

CC1(C)OC(=S)N(c2ccccc2)C12C=Cc1cc3ccccc3nc1S2 (stereo not drawn)
inactive: HT-29 40.4 µM | OVCAR-8 > 100 µM | UACC-62 > 100 µM | HOP-92 40.3 µM | SF-539 > 100 µM | HCT-116 > 100 µM | NCI-H460 84.9 µM | NCI-H522 32.6 µM | COLO 205 84.3 µM | NCI-H23 29.6 µM | EKVX > 100 µM | IGROV-1 > 100 µM | NCI-H226 > 100 µM | SN12C > 100 µM

C[C@@]12CCCC(=O)N1[C@@H](CO)C(c1ccccc1)O2 (stereo partly drawn)
inactive: HT-29 > 100 µM | OVCAR-4 > 100 µM | OVCAR-8 > 100 µM | UACC-62 > 100 µM | HOP-92 > 100 µM | SF-539 > 100 µM | HCT-116 > 100 µM | NCI-H460 > 100 µM | A498 > 100 µM | COLO 205 > 100 µM | NCI-H23 > 100 µM | EKVX > 100 µM | IGROV-1 > 100 µM | SN12C > 100 µM
